Assay results: patent US4816447A, “Anti-viral guanine compounds” (priority 1984, dated 1989)

Assays:
[1] = tested on: Herpes simplex virus type 1; assay: Intraperitoneal Herpes simplex type 1 infection in mice, oral treatment (Table XI); type: in vivo, Herpes simplex type 1; ICR/Ha mice; details: for Percent Survival: at 13 days
From the text: ICR/Ha mice were infected as described in Example 36. […] These animals served as toxicity controls.

[2] = tested on: HSV-1; assay: Intraperitoneal HSV-1 infection in mice, oral treatment (Table VI); type: in vivo, HSV-1; ICR/Ha mice; details: for minimal effective dose: Human alphaherpesvirus 1, intraperitoneal infection, oral treatment, read-out: Min. Effective Dose
[3] = tested on: Herpes simplex virus type 2; assay: Tube dilution assay, viral cytopathology of HSV-2 in rabbit kidney cell cultures; details: Human alphaherpesvirus 2, in Oryctolagus cuniculus, read-out: Minimum Effective Concentration
[4] = tested on: HSV-1 PAA ®1; details: HSV-1 PAA R1
[5] = tested on: HSV-1 (383R1); type: cell-based; details: HSV-1 (383R1) vs wild type
[6] = tested on: HSV-1 WT; assay: 50% plaque reduction of HSV-1 wild type in 3T3 TK- and 3T3 TK-/TK+HSV cells (Table VIII); details: for EC50: Human alphaherpesvirus 1, in Mus musculus, read-out: Antiviral Concentration, 50% plaque reduction
[7] = tested on: HSV-1 wild type (Schooler); assay: Protection of mice against intraperitoneal infection with HSV-1 (Table IX); type: in vivo, HSV-1; mice; details: for Mean Survival Time (± SD): HSV-1, s.c. twice daily, 4 days; for protective efficacy over a 10^6 -fold virus challenge range: HSV-1 or HSV-1 (383R1)
Description: 1. […] Groups of mice infected intraperitoneally with increasing doses of HSV-1 or HSV-1 (383R1) were treated twice daily subcutaneously for 4 days with either the Cyclic Monophosphate or the compound of Formula II. Mean survival times of treated mice were compared.

[8] = biological target: thymidine kinase, isolated from HSV1-infected HeLa cells (Human herpesvirus 1, UniProt P0DTH5); assay: Competition between thymidine and acycloguanosine or compound of formula II for phosphorylation by the virus-induced thymidine kinase; type: biochemical; details: for Percent monophosphate: 1200 min
Sequence of thymidine kinase, isolated from HSV1-infected HeLa cells (P0DTH5 whole entry): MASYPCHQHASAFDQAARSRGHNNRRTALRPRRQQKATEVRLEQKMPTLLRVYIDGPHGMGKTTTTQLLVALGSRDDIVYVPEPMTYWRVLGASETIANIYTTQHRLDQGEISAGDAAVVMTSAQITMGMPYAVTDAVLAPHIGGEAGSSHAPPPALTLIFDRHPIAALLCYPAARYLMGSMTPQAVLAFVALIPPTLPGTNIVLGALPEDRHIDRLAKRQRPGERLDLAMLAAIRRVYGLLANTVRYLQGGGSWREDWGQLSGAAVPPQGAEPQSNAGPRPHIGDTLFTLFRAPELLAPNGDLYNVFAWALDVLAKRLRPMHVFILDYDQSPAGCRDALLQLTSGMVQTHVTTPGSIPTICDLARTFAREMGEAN

[9] = tested on: HSV-1 (383R1); assay: Phosphorylation capacity of HSV-1 (383R1); type: biochemical
[10] = biological target: HSV1-induced thymidine kinase (Human alphaherpesvirus 1 strain 17, UniProt P0DTH5); assay: Kinetic parameters with purified viral thymidine kinase; type: biochemical; details: compound of formula II to acycloguanosine
Sequence of HSV1-induced thymidine kinase (P0DTH5 whole entry): as above

[11] = tested on: Cytomegalovirus; assay: Cytomegalovirus plaque reduction assay on human MRC-5 monolayers; type: cell-based, Cytomegalovirus (Towne Strain); human MRC-5 cells
Description: The compound of formula II was effective in suppressing cytomegalovirus plaque formation on MRC-5 cell monolayers using 0.1 to 0.6 μg/ml.
^d Plaque reduction assay on human MRC5 cell monolayers

[12] = tested on: vesicular stomatitis; type: cell-based
[13] = tested on: HSV-1; assay: Intracerebral HSV-1 infection in weanling mice, subcutaneous treatment (Table VI); type: in vivo, HSV-1; ICR/Ha weanling mice
[14] = tested on: influenza A; assay: RNA virus replication, influenza A; type: cell-based
[15] = tested on: polio; type: cell-based
[16] = tested on: primary rabbit kidney cell cultures; assay: Toxicity controls in primary rabbit kidney cell cultures; type: cell-based; details: at 100 μg/ml
[17] = tested on: HSV2; assay: In vitro assay, viral cytopathology of HSV2 in primary rabbit kidney cells; type: cell-based; details: Human alphaherpesvirus 2; days 5 and 7; read-out: Min. Effective Dose against HSV2
[18] = tested on: feline rhinotracheitis virus; assay: Antiviral activity against feline rhinotracheitis virus; type: cell-based; details: data not shown, read-out: ED50 (the source's name)
[19] = tested on: HSV1 (Strain Schooler); assay: In vivo assay, intraperitoneal HSV1 infection of mice, subcutaneous treatment (Table IV); set-up: species or system HSV1; ICR/Ha mice; details: for Percent Survival: 15 days
Description: Twenty gram ICR/Ha mice were infected with approximately 100 lethal doses (100LD50) of HSV1 (Strain Schooler) by the intraperitoneal route. Groups of 10 infected animals were treated twice daily for four days starting immediately after infection by subcutaneous injection at final daily doses of 50, 12.5, 3.1, 0.8, 0.2, 0.05 and 0.0125 mg/kg of potassium 9-(1,3-dihydroxy-2-propoxymethyl)guanine cyclic monophosphate. The mice were observed daily for 15 days at the same time each day and the day of death recorded for each animal.

[20] = tested on: HSV1; assay: In vitro assay, viral cytopathology of HSV1 in primary rabbit kidney cells; type: cell-based; details: Human alphaherpesvirus 1; days 5 and 7; read-out: Min. Effective Dose against HSV1
[21] = tested on: equine herpes virus; assay: Antiviral activity against equine herpes virus; type: cell-based; details: data not shown, read-out: ED50 (the source's name)

## Nc1nc2c(ncn2COCCO)c(=O)[nH]1 [Acycloguanosine, 9-(2-hydroxyethoxymethyl)guanine, reference compound]
[1]; 3.1 mg/kg/day oral
  Avg. Survival Time: 6.3 days
  Percent Survival: 0%
[1]; 12.5 mg/kg/day oral
  Avg. Survival Time: 6.6 days
  Percent Survival: 0%
[1]; 50 mg/kg/day oral
  Avg. Survival Time: 8.2 days
  Percent Survival: 20%
[1]; 100 mg/kg/day oral
  Avg. Survival Time: 11.4 days
  Percent Survival: 60%
[1]; all treated groups
  survival vs placebo: none of the acycloquanosine-treated groups showed enhanced survival
[1]; only at 100 and 50 mg/kg daily
  extension of survival time vs placebo: statistically significant extension of survival time
[2]
  minimal effective dose: 12.5 to 50 mg/kg/day
[3]
  minimal effective concentration: 1 to 3 µg/mL
[4]
  Sensitivity (S) or Resistance (R): R

## Nc1nc2c(ncn2COC(CO)CO)c(=O)[nH]1 [Compound of Formula II, 9-(1,3-Dihydroxy-2-propoxymethyl)guanine]
[5]
  less susceptible than wild type: approximately 100 fold
[1]; 0.2 mg/kg/day oral
  Avg. Survival Time: 6.8 days
  Percent Survival: 0%
[1]; 0.8 mg/kg/day oral
  Avg. Survival Time: 8.5 days
  Percent Survival: 20%
[1]; 3.1 mg/kg/day oral
  Avg. Survival Time: 11.7 days
  Percent Survival: 50%
[1]; 12.5 mg/kg/day oral
  Avg. Survival Time: 13.9 days
  Percent Survival: 80%
[1]; 50 mg/kg/day oral
  Avg. Survival Time: 16.9 days
  Percent Survival: 100%
[1]; 50, 12.5, 3.1 and 0.8 mg/kg daily
  extension of survival time vs placebo: statistically significant extension of survival time
[1]; 50 and 12.5 mg/kg groups
  survival vs placebo: statistically significantly longer
[1]; oral, twice daily for 7 days
  overt toxicity, final weight of test animals: no evidence of overt toxicity
[1]; statistically significant
  relative potency to acycloguanosine: 50.3
[6]
  EC50: 0.06 µg/mL
[7]
  Mean Survival Time (± SD): 12.55 (0.88)
  protective efficacy over a 10^6 -fold virus challenge range: no significant difference in protective efficacy
[3]
  minimal effective concentration: 1 to 3 µg/mL
[8]; large excess of thymidine
  phosphorylation in presence of a large excess of thymidine: is phosphorylated by the viral thymidine kinase even in the presence of a large excess of thymidine
[8]; plus 2.5 mM thymidine
  Percent monophosphate: 23%
[8]; without thymidine
  Percent monophosphate: 93%
[9]
  phosphorylation by HSV-1 (383R1): incapable of phosphorylation
[10]
  relative efficiency as substrate (Vmax /Km) vs acycloguanosine: 30 to 1
[11]
  calculated average relative potency to acycloguanosine (95% CI): 28.6

## Nc1nc2c(ncn2COC2COP(=O)(O)OC2)c(=O)[nH]1 (centres unmarked) [Cyclic Monophosphate, Potassium 9-(1,3-dihydroxy-2-propoxymethyl)guanine cyclic monophosphate]
[12]
  effect on RNA virus replication: not effective
[6]
  susceptibility of HSV-1 greater than HSV-1 (383R1): about 5 fold
  EC50: 0.2 µg/mL
[13]; Human alphaherpesvirus 1, sc, intracerebral infection, subcutaneous treatment, read-out: Min. Effective Dose
  minimal effective dose: 0.8 mg/kg/day
[13]; intracerebral
  efficacy relative to acyclovir by minimum effective dose: consistently more efficacious than acyclovir
[14]
  effect on RNA virus replication: not effective
[15]
  effect on RNA virus replication: not effective
[7]
  Mean Survival Time (± SD): 12.65 (0.84)
  protective efficacy over a 10^6 -fold virus challenge range: no significant difference in protective efficacy
[16]
  Toxicity: Not tox.
[2]
  minimal effective dose: 0.8 to 3.1 mg/kg/day
[2]; intraperitoneal
  efficacy relative to acyclovir by minimum effective dose: consistently more efficacious than acyclovir
[2]; not shown in Table VI
  antiviral efficacy in the herpes-mouse infection model relative to compound of Formula II: generally equivalent
[17]
  minimal effective concentration: 50 to 100 µg/mL
[18]
  EC50: ~1 µg/mL
[19]; Expt. 1, 0.2 mg/kg/day s.c.
  Ave. Survival Time: 13.5 days
  Percent Survival: 70%
[19]; Expt. 1, 0.8 mg/kg/day s.c.
  Ave. Survival Time: 10.5 days
  Percent Survival: 40%
[19]; Expt. 1, 3.1 mg/kg/day s.c.
  Ave. Survival Time: 10.7 days
  Percent Survival: 20%
[19]; Expt. 1, 12.5 mg/kg/day s.c.
  Ave. Survival Time: 19.5 days
  Percent Survival: 100%
[19]; Expt. 1, 50 mg/kg/day s.c.
  Ave. Survival Time: 19.5 days
  Percent Survival: 100%
[19]; Expt. 2, 0.0125 mg/kg/day s.c.
  Ave. Survival Time: 6.3 days
  Percent Survival: 10%
[19]; Expt. 2, 0.05 mg/kg/day s.c.
  Ave. Survival Time: 6.0 days
  Percent Survival: 0%
[19]; Expt. 2, 0.2 mg/kg/day s.c.
  Ave. Survival Time: 8.3 days
  Percent Survival: 30%
[19]; Expt. 2, 0.8 mg/kg/day s.c.
  Ave. Survival Time: 7.4 days
  Percent Survival: 0%
[19]; Expt. 2, 3.1 mg/kg/day s.c.
  Ave. Survival Time: 11.5 days
  Percent Survival: 50%
[19]; Expt. 2, 12.5 mg/kg/day s.c.
  Ave. Survival Time: 15.0 days
  Percent Survival: 60%
[20]
  minimal effective concentration: 12.5 to 25 µg/mL
[21]
  EC50: ~1 µg/mL
